Source: PubChem BioAssay (NCI)
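In this assay, cells in 96-well plates receive the compound at five concentrations for 48 hours. Endpoints are linearly interpolated between the surrounding concentrations. The concentration for full growth arrest is given as TGI.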

Key:
Test in all cases: inhibition of tumour cell growth, NCI panel, 48 h
786-0 renal = tested on: 786-0 renal
A498 renal = tested on: A498 renal
A549 NSCLC = tested on: A549 NSCLC
ACHN renal = tested on: ACHN renal
BT-549 breast = tested on: BT-549 breast
CAKI-1 renal = tested on: CAKI-1 renal
CCRF-CEM leukemia = tested on: CCRF-CEM leukemia
COLO 205 colon = tested on: COLO 205 colon
DU-145 prostate = tested on: DU-145 prostate
EKVX NSCLC = tested on: EKVX NSCLC
HCC-2998 colon = tested on: HCC-2998 colon
HCT-116 colon = tested on: HCT-116 colon
HCT-15 colon = tested on: HCT-15 colon
HL-60(TB) leukemia = tested on: HL-60(TB) leukemia
HOP-62 NSCLC = tested on: HOP-62 NSCLC
HOP-92 NSCLC = tested on: HOP-92 NSCLC
HS 578T breast = tested on: HS 578T breast
HT29 colon = tested on: HT29 colon
IGROV1 ovarian = tested on: IGROV1 ovarian
K-562 leukemia = tested on: K-562 leukemia
KM12 colon = tested on: KM12 colon
LOX IMVI melanoma = tested on: LOX IMVI melanoma
M14 melanoma = tested on: M14 melanoma
MALME-3M melanoma = tested on: MALME-3M melanoma
MCF7 breast = tested on: MCF7 breast
MDA-MB-231 breast = tested on: MDA-MB-231 breast
MDA-MB-435 = tested on: MDA-MB-435
MDA-N = tested on: MDA-N
MOLT-4 leukemia = tested on: MOLT-4 leukemia
NCI-H226 lung = tested on: NCI-H226 lung
NCI-H23 lung = tested on: NCI-H23 lung
NCI-H460 lung = tested on: NCI-H460 lung
NCI-H522 lung = tested on: NCI-H522 lung
NCI/ADR-RES ovarian = tested on: NCI/ADR-RES ovarian
OVCAR-3 ovarian = tested on: OVCAR-3 ovarian
OVCAR-4 ovarian = tested on: OVCAR-4 ovarian
OVCAR-5 ovarian = tested on: OVCAR-5 ovarian
OVCAR-8 ovarian = tested on: OVCAR-8 ovarian
PC-3 prostate = tested on: PC-3 prostate
RPMI-8226 leukemia = tested on: RPMI-8226 leukemia
RXF 393 renal = tested on: RXF 393 renal
SF-268 CNS = tested on: SF-268 CNS
SF-295 CNS = tested on: SF-295 CNS
SF-539 CNS = tested on: SF-539 CNS
SK-MEL-2 melanoma = tested on: SK-MEL-2 melanoma
SK-MEL-28 melanoma = tested on: SK-MEL-28 melanoma
SK-MEL-5 melanoma = tested on: SK-MEL-5 melanoma
SK-OV-3 ovarian = tested on: SK-OV-3 ovarian
SN12C renal = tested on: SN12C renal
SNB-19 CNS = tested on: SNB-19 CNS
SR leukemia = tested on: SR leukemia
SW-620 colon = tested on: SW-620 colon
T-47D breast = tested on: T-47D breast
TK-10 renal = tested on: TK-10 renal
U251 CNS = tested on: U251 CNS
UACC-257 melanoma = tested on: UACC-257 melanoma
UACC-62 melanoma = tested on: UACC-62 melanoma
UO-31 renal = tested on: UO-31 renal

Question: What does the source list for `NS(=O)(=O)c1ccc(Nc2c3ccccc3nc3c(C(=O)NC(CO)(CO)CO)cccc23)cc1`?
Answer: TGI (786-0 renal): 51.4 nM; TGI (A498 renal): 466 nM; TGI (A549 NSCLC): 314 nM; TGI (ACHN renal): 508 nM; TGI (BT-549 breast): 322 nM; TGI (CAKI-1 renal): 525 nM; TGI (CCRF-CEM leukemia): 891 nM; TGI (COLO 205 colon): 175 nM; TGI (DU-145 prostate): 812 nM; TGI (EKVX NSCLC): > 1000 nM; TGI (HCC-2998 colon): 390 nM; TGI (HCT-116 colon): 327 nM; TGI (HCT-15 colon): 948 nM; TGI (HL-60(TB) leukemia): 642 nM; TGI (HOP-62 NSCLC): 433 nM; TGI (HOP-92 NSCLC): 389 nM; TGI (HS 578T breast): 440 nM; TGI (HT29 colon): 450 nM; TGI (IGROV1 ovarian): 506 nM; TGI (K-562 leukemia): 642 nM; TGI (KM12 colon): 309 nM; TGI (LOX IMVI melanoma): 286 nM; TGI (M14 melanoma): 390 nM; TGI (MALME-3M melanoma): 272 nM; TGI (MCF7 breast): 106 nM; TGI (MDA-MB-231 breast): 434 nM; TGI (MDA-MB-435): 558 nM; TGI (MDA-N): 862 nM; TGI (MOLT-4 leukemia): 195 nM; TGI (NCI-H226 lung): 315 nM; TGI (NCI-H23 lung): 318 nM; TGI (NCI-H460 lung): 248 nM; TGI (NCI-H522 lung): 306 nM; TGI (NCI/ADR-RES ovarian): > 1000 nM; TGI (OVCAR-3 ovarian): 339 nM; TGI (OVCAR-4 ovarian): 193 nM; TGI (OVCAR-5 ovarian): 709 nM; TGI (OVCAR-8 ovarian): 595 nM; TGI (PC-3 prostate): 814 nM; TGI (RPMI-8226 leukemia): 683 nM; TGI (RXF 393 renal): 386 nM; TGI (SF-268 CNS): 486 nM; TGI (SF-295 CNS): > 1000 nM; TGI (SF-539 CNS): 407 nM; TGI (SK-MEL-2 melanoma): 396 nM; TGI (SK-MEL-28 melanoma): 576 nM; TGI (SK-MEL-5 melanoma): 229 nM; TGI (SK-OV-3 ovarian): 468 nM; TGI (SN12C renal): 695 nM; TGI (SNB-19 CNS): 783 nM; TGI (SR leukemia): > 1000 nM; TGI (SW-620 colon): 435 nM; TGI (T-47D breast): > 1000 nM; TGI (TK-10 renal): 311 nM; TGI (U251 CNS): 457 nM; TGI (UACC-257 melanoma): 346 nM; TGI (UACC-62 melanoma): 318 nM; TGI (UO-31 renal): 366 nM

Question: For `COc1cc2c3c(c4ccc(O)cc4c2cc1OC)[C@@H](O)[C@@H]1CCCN1C3`, which TGI (786-0 renal) is on record?
Answer: Its TGI is 25.7 nM.

Question: And the TGI (A498 renal)?
Answer: The TGI was 6.25 nM.

Question: What about the TGI (A549 NSCLC) of the same compound?
Answer: The TGI was 2.6 nM.

Question: And the TGI (ACHN renal)?
Answer: The TGI was 38.1 nM.

Question: What about the TGI (BT-549 breast) of the same compound?
Answer: The TGI was 27 nM.

Question: And the TGI (CAKI-1 renal)?
Answer: Its TGI is 2.85 nM.

Question: And the TGI (CCRF-CEM leukemia)?
Answer: Its TGI is 7.3 nM.

Question: And the TGI (COLO 205 colon)?
Answer: Its TGI is 145 nM.

Question: And the TGI (DU-145 prostate)?
Answer: The TGI was 3.6 nM.

Question: What about the TGI (EKVX NSCLC) of the same compound?
Answer: Its TGI is 6.25 nM.

Question: What about the TGI (HCC-2998 colon) of the same compound?
Answer: The TGI was 2 nM.

Question: And the TGI (HCT-116 colon)?
Answer: The TGI was 1.88 nM.

Question: And the TGI (HCT-15 colon)?
Answer: The TGI was 204 nM.

Question: And the TGI (HL-60(TB) leukemia)?
Answer: Its TGI is 4740 nM.

Question: And the TGI (HOP-62 NSCLC)?
Answer: The TGI was 42.1 nM.

Question: And the TGI (HOP-92 NSCLC)?
Answer: Its TGI is 19.1 nM.

Question: And the TGI (HS 578T breast)?
Answer: Its TGI is 5.66 nM.

Question: What about the TGI (HT29 colon) of the same compound?
Answer: Its TGI is 34 nM.

Question: And the TGI (IGROV1 ovarian)?
Answer: Its TGI is 9.65 nM.

Question: And the TGI (KM12 colon)?
Answer: Its TGI is 8.37 nM.

Question: And the TGI (LOX IMVI melanoma)?
Answer: The TGI was 3.39 nM.

Question: What about the TGI (M14 melanoma) of the same compound?
Answer: The TGI was 8.83 nM.

Question: What about the TGI (MALME-3M melanoma) of the same compound?
Answer: The TGI was 3.14 nM.

Question: And the TGI (MCF7 breast)?
Answer: Its TGI is under 1 nM.

Question: And the TGI (MDA-MB-231 breast)?
Answer: The TGI was 7.8 nM.

Question: What about the TGI (MDA-MB-435) of the same compound?
Answer: The TGI was 7.2 nM.

Question: And the TGI (MDA-N)?
Answer: Its TGI is 145 nM.

Question: And the TGI (NCI-H226 lung)?
Answer: Its TGI is 13.7 nM.

Question: And the TGI (NCI-H23 lung)?
Answer: The TGI was 55.8 nM.

Question: What about the TGI (NCI-H460 lung) of the same compound?
Answer: The TGI was 15.5 nM.

Question: And the TGI (NCI-H522 lung)?
Answer: Its TGI is 7.81 nM.

Question: And the TGI (NCI/ADR-RES ovarian)?
Answer: The TGI was 532 nM.

Question: What about the TGI (OVCAR-3 ovarian) of the same compound?
Answer: Its TGI is 4.93 nM.

Question: What about the TGI (OVCAR-4 ovarian) of the same compound?
Answer: The TGI was 2.39 nM.

Question: And the TGI (OVCAR-5 ovarian)?
Answer: The TGI was 45.4 nM.

Question: And the TGI (OVCAR-8 ovarian)?
Answer: Its TGI is 480 nM.

Question: And the TGI (PC-3 prostate)?
Answer: The TGI was 175 nM.

Question: And the TGI (RPMI-8226 leukemia)?
Answer: Its TGI is 3.84 nM.

Question: And the TGI (RXF 393 renal)?
Answer: The TGI was 2.9 nM.

Question: And the TGI (SF-268 CNS)?
Answer: The TGI was 1.8 nM.

Question: And the TGI (SF-295 CNS)?
Answer: The TGI was 65.5 nM.

Question: What about the TGI (SF-539 CNS) of the same compound?
Answer: Its TGI is under 11.4 nM.

Question: What about the TGI (SK-MEL-2 melanoma) of the same compound?
Answer: The TGI was 4.29 nM.

Question: What about the TGI (SK-MEL-28 melanoma) of the same compound?
Answer: The TGI was under 1 nM.

Question: And the TGI (SK-MEL-5 melanoma)?
Answer: Its TGI is 20.6 nM.

Question: And the TGI (SN12C renal)?
Answer: The TGI was 9.32 nM.

Question: What about the TGI (SNB-19 CNS) of the same compound?
Answer: The TGI was 2.16 nM.

Question: And the TGI (SR leukemia)?
Answer: The TGI was 215 nM.

Question: What about the TGI (SW-620 colon) of the same compound?
Answer: The TGI was 1250 nM.

Question: And the TGI (T-47D breast)?
Answer: Its TGI is 2.16 nM.

Question: And the TGI (TK-10 renal)?
Answer: Its TGI is 6.49 nM.

Question: What about the TGI (U251 CNS) of the same compound?
Answer: Its TGI is 2.41 nM.

Question: What about the TGI (UACC-257 melanoma) of the same compound?
Answer: The TGI was 58.8 nM.

Question: What about the TGI (UACC-62 melanoma) of the same compound?
Answer: The TGI was 80.7 nM.

Question: What about the TGI (UO-31 renal) of the same compound?
Answer: The TGI was 21.1 nM.
